Data published in PubChem BioAssay AID248 (DTP/NCI, 2004).
“And” between values parts separate entries of the source, which are not always exact repeats. Equal values may be shown once. Inconclusive results and toxic doses are left out. Rule as the data show it: active = T/C of 150% or more; inactive = T/C below 125%.

Tested on: L1210 leukemia ip in BDF1 mice, survival T/C
Test: NCI In Vivo Anticancer Drug Screen. Data for tumor model L1210 Leukemia (intraperitoneal) in B6D2F1 (BDF1) mice
Details: endpoint: mean survival time, higher = longer survival
Method in brief: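 Mice bearing the transplanted tumor received compound or vehicle. Survival of the treated group was divided by that of the vehicle-treated control group to give the ratio.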

[1] = dose: 5.0 mg/kg/injection, schedule: Q01DX001 (ip), vehicle: carboxymethylcellulose (CMC)
[2] = dose: 10.0 mg/kg/injection, schedule: Q01DX001 (ip), vehicle: carboxymethylcellulose (CMC)
[3] = dose: 20.0 mg/kg/injection, schedule: Q01DX001 (ip), vehicle: carboxymethylcellulose (CMC)
[4] = dose: 40.0 mg/kg/injection, schedule: Q01DX001 (ip), vehicle: carboxymethylcellulose (CMC)
[5] = dose: 100.0 mg/kg/injection, schedule: Q01DX001 (ip), vehicle: Klucel (hydroxypropylcellulose) (HPC)
[6] = dose: 200.0 mg/kg/injection, schedule: Q01DX001 (ip), vehicle: Klucel (hydroxypropylcellulose) (HPC)
[7] = dose: 400.0 mg/kg/injection, schedule: Q01DX001 (ip), vehicle: Klucel (hydroxypropylcellulose) (HPC)
[8] = dose: 50.0 mg/kg/injection, schedule: Q01DX001 (ip), vehicle: saline
[9] = dose: 100.0 mg/kg/injection, schedule: Q01DX001 (ip), vehicle: carboxymethylcellulose (CMC)
[10] = dose: 200.0 mg/kg/injection, schedule: Q01DX001 (ip), vehicle: carboxymethylcellulose (CMC)
[11] = dose: 400.0 mg/kg/injection, schedule: Q01DX001 (ip), vehicle: carboxymethylcellulose (CMC)

Measured: T/C

C[n+]1ccccc1/C=C/c1csc2ccccc12
inactive: [1] 100 % of control | [2] 102 % of control | [3] 100 % of control | [4] 100 % of control | dose: 80.0 mg/kg/injection, schedule: Q01DX001 (ip), vehicle: carboxymethylcellulose (CMC) 107 % of control

COc1ccc2c(c1)C(=O)CC(C)N2S(=O)(=O)c1ccc(C)cc1 (centres undefined)
inactive: dose: 18.75 mg/kg/injection, schedule: Q04DX002 (ip), vehicle: Klucel (hydroxypropylcellulose) (HPC) 95 % of control | dose: 37.5 mg/kg/injection, schedule: Q04DX002 (ip), vehicle: Klucel (hydroxypropylcellulose) (HPC) 113 % of control | dose: 75.0 mg/kg/injection, schedule: Q04DX002 (ip), vehicle: Klucel (hydroxypropylcellulose) (HPC) 103 % of control | dose: 150.0 mg/kg/injection, schedule: Q04DX002 (ip), vehicle: Klucel (hydroxypropylcellulose) (HPC) 98 % of control and 103 % of control | dose: 300.0 mg/kg/injection, schedule: Q04DX002 (ip), vehicle: Klucel (hydroxypropylcellulose) (HPC) 87 % of control

NC(=Nc1ccccc1)c1ccc(C(N)=Nc2ccccc2)cc1
inactive: dose: 15.0 mg/kg/injection, schedule: Q01DX Z (ip), vehicle: carboxymethylcellulose (CMC) 104 % of control | dose: 30.0 mg/kg/injection, schedule: Q01DX Z (ip), vehicle: carboxymethylcellulose (CMC) 98 % of control | dose: 60.0 mg/kg/injection, schedule: Q01DX Z (ip), vehicle: carboxymethylcellulose (CMC) 86 % of control

O=P(O)(O)CCC(F)(F)C(F)(F)C(F)(F)C(F)(F)C(F)(F)C(F)(F)C(F)(F)F
inactive: dose: 75.0 mg/kg/injection, schedule: Q01DX001 (ip), vehicle: saline 96 % of control

O=CC(NC(=O)c1ccccc1)C(O)C(O)C(O)CO (centres undefined)
inactive: [5] 98 % of control | [6] 105 % of control | [7] 105 % of control

Cc1ncc(N)c2c1OC(C)(C)OC2
inactive: [8] 91 % of control

O=C(OCCN(CCOC(=O)c1ccc([N+](=O)[O-])cc1)c1c[nH]c(=O)[nH]c1=O)c1ccc([N+](=O)[O-])cc1
inactive: [8] 93 % of control | dose: 100.0 mg/kg/injection, schedule: Q01DX001 (ip), vehicle: saline 93 % of control | dose: 200.0 mg/kg/injection, schedule: Q01DX001 (ip), vehicle: saline 93 % of control | dose: 400.0 mg/kg/injection, schedule: Q01DX001 (ip), vehicle: saline 110 % of control

Cc1ccc(CO)cc1
inactive: dose: 100.0 mg/kg/injection, schedule: Q01DX009 (ip), vehicle: saline 97 % of control | dose: 100.0 mg/kg/injection, schedule: Q04DX003 (ip), vehicle: saline 106 % of control | dose: 200.0 mg/kg/injection, schedule: Q04DX003 (ip), vehicle: saline 114 % of control | dose: 400.0 mg/kg/injection, schedule: Q01DX009 (ip), vehicle: saline 92 % of control | dose: 400.0 mg/kg/injection, schedule: Q04DX003 (ip), vehicle: saline 106 % of control

CCc1oc(N)nc1-c1ccccc1
inactive: dose: 100.0 mg/kg/injection, schedule: Q04DX003 (ip), vehicle: saline with Tween-80 105 % of control | dose: 200.0 mg/kg/injection, schedule: Q04DX003 (ip), vehicle: saline with Tween-80 101 % of control | dose: 400.0 mg/kg/injection, schedule: Q04DX003 (ip), vehicle: saline with Tween-80 97 % of control

CS(=O)(=O)OCCCCCOS(C)(=O)=O
inactive: [1] 97 % of control | dose: 6.0 mg/kg/injection, schedule: Q01DX015 (ip), vehicle: saline 101 % of control | [2] 100 % of control | dose: 12.0 mg/kg/injection, schedule: Q01DX015 (ip), vehicle: saline 110 % of control | [3] 100 % of control | [4] 101 % of control | dose: 50.0 mg/kg/injection, schedule: Q01DX015 (ip), vehicle: saline 101 % of control

O=C(Nc1ccc(NC(=O)Nc2cc(C3=NCCN3)cc(C3=NCCN3)c2)cc1)Nc1cc(C2=NCCN2)cc(C2=NCCN2)c1
inactive: dose: 15.0 mg/kg/injection, schedule: Q01DX Z (ip), vehicle: saline 90 % of control

COc1ccc(CCNC(=O)C2CCN(CCc3ccc(OC)c(OC)c3)CC2)cc1OC
inactive: [9] 102 % of control | [10] 96 % of control | [11] 89 % of control

Cc1ccc(S(=O)(=O)Nc2cc(C)cc(CCNC=O)c2C)cc1
inactive: dose: 50.0 mg/kg/injection, schedule: Q01DX001 (ip), vehicle: carboxymethylcellulose (CMC) 114 % of control | [9] 109 % of control | [10] 95 % of control | [11] 93 % of control

COCCNCCN1CCN(CCCN2c3ccccc3Sc3ccc(C(F)(F)F)cc32)CC1
inactive: dose: 6.25 mg/kg/injection, schedule: Q04DX003 (ip), vehicle: saline 110 % of control | dose: 12.5 mg/kg/injection, schedule: Q01DX009 (ip), vehicle: saline 107 % of control | dose: 12.5 mg/kg/injection, schedule: Q04DX003 (ip), vehicle: saline 96 % of control and 100 % of control | dose: 25.0 mg/kg/injection, schedule: Q01DX009 (ip), vehicle: saline 105 % of control | dose: 25.0 mg/kg/injection, schedule: Q04DX003 (ip), vehicle: saline 95 % of control and 105 % of control | dose: 50.0 mg/kg/injection, schedule: Q04DX003 (ip), vehicle: saline 102 % of control and 108 % of control

CC1(C)C2CC3C=CCCC3(C2)C1Br (centres undefined)
inactive: [5] 103 % of control | [6] 92 % of control | [7] 100 % of control
